Assay results from ChEMBL document CHEMBL4184100, “Discovery of 2-arylquinazoline derivatives as a new class of ASK1 inhibitors” (Bioorg Med Chem Lett, 2018).
Values after ≈ are worked out from the molar mass of the structure shown. Active and inactive are the calls of the source. No cut-off for these calls is given here.

Tests used:
CYP1A2 = target: T1, CYP1A2 (Homo sapiens, UniProt P05177); assay: Inhibition of CYP1A2 (unknown origin) at 10 uM relative to control; format: ADME
T1 sequence (P05177 whole entry): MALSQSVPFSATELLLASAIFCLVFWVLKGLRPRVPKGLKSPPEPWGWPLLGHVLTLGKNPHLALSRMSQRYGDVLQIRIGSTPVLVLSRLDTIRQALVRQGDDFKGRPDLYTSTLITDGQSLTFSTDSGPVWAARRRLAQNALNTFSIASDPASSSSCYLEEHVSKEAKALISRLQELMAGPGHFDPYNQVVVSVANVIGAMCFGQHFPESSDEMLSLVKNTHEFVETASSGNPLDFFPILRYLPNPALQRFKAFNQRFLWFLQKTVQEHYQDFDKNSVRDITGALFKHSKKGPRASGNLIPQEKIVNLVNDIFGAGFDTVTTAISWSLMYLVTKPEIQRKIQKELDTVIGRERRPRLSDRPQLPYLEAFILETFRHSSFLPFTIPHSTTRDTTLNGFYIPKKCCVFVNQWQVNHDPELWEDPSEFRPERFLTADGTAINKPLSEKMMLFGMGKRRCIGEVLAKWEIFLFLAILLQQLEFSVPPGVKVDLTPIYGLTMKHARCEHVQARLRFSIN

[1] = Stability in human liver microsomes; format: ADME, microsome; settings: read-out: Stability
[2] = Solubility of the compound in phosphate buffered saline at pH 7.4; format: physicochemical; settings: buffer
[3] = target: T2, Mitogen-activated protein kinase kinase kinase 5 (Homo sapiens, UniProt Q99683); assay: Inhibition of stress-activated full length recombinant human N-terminal GST-tagged ASK1 expressed in baculovirus expression system using MKK6 as substrate pretreated for 10 mins followed by substrate addition by Alphascreen assay
T2 sequence (Q99683 whole entry): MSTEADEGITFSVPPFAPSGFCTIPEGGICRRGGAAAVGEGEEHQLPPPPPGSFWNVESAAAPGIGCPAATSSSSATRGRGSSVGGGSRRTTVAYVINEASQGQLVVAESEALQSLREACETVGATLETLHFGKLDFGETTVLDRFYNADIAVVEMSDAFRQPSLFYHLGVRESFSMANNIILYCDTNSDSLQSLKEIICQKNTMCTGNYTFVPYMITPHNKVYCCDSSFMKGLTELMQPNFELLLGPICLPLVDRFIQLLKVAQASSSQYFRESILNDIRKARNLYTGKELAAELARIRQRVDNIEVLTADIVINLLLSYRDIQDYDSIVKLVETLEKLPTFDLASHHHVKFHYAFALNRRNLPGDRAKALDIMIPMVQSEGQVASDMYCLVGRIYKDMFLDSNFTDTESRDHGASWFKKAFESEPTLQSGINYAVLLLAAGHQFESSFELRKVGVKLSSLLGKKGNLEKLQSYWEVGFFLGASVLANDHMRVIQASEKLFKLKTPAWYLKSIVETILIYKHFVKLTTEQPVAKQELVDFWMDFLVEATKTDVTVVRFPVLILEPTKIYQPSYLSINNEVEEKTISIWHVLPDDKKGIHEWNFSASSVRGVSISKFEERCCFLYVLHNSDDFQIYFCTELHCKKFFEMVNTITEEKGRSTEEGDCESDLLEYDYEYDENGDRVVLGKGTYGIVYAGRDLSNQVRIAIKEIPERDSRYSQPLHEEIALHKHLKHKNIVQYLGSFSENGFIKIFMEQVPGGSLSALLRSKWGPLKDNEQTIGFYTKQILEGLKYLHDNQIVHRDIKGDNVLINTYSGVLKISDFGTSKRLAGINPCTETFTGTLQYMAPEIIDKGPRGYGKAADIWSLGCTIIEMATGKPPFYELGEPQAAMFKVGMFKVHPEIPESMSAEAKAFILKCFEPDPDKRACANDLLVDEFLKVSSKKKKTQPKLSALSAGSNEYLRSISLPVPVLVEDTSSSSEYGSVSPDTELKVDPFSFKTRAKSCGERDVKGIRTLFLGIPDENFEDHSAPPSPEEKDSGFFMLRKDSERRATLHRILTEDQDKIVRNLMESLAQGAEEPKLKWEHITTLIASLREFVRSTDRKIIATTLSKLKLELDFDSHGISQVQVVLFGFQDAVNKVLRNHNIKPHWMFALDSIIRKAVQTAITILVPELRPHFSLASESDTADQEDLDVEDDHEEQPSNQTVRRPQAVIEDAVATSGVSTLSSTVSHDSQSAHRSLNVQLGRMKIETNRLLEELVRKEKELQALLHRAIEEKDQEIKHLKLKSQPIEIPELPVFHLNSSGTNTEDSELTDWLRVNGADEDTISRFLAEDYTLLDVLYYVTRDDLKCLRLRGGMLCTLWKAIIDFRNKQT

CYP3A4 = CYP3A4 (Homo sapiens, UniProt P08684); assay: Inhibition of CYP3A4 (unknown origin) at 10 uM relative to control; format: ADME
[4] = Stability in mouse liver microsomes; format: ADME, microsome; settings: read-out: Stability
[5] = Stability in rat liver microsomes; format: ADME, microsome; settings: read-out: Stability
CYP2D6 = CYP2D6 (Homo sapiens, UniProt P10635); assay: Inhibition of CYP2D6 (unknown origin) at 10 uM relative to control; format: ADME
[6] = target: T3, Mitogen-activated protein kinase kinase kinase 5 (Rattus norvegicus) (UniProt D3ZZH6); assay: Inhibition of […] in rat INS-1E cells assessed as reduction in TNFalpha-induced […] phosphorylation at ser207 residues up to 10 uM by immunoblot analysis; format: cell-based
T3 sequence (whole entry): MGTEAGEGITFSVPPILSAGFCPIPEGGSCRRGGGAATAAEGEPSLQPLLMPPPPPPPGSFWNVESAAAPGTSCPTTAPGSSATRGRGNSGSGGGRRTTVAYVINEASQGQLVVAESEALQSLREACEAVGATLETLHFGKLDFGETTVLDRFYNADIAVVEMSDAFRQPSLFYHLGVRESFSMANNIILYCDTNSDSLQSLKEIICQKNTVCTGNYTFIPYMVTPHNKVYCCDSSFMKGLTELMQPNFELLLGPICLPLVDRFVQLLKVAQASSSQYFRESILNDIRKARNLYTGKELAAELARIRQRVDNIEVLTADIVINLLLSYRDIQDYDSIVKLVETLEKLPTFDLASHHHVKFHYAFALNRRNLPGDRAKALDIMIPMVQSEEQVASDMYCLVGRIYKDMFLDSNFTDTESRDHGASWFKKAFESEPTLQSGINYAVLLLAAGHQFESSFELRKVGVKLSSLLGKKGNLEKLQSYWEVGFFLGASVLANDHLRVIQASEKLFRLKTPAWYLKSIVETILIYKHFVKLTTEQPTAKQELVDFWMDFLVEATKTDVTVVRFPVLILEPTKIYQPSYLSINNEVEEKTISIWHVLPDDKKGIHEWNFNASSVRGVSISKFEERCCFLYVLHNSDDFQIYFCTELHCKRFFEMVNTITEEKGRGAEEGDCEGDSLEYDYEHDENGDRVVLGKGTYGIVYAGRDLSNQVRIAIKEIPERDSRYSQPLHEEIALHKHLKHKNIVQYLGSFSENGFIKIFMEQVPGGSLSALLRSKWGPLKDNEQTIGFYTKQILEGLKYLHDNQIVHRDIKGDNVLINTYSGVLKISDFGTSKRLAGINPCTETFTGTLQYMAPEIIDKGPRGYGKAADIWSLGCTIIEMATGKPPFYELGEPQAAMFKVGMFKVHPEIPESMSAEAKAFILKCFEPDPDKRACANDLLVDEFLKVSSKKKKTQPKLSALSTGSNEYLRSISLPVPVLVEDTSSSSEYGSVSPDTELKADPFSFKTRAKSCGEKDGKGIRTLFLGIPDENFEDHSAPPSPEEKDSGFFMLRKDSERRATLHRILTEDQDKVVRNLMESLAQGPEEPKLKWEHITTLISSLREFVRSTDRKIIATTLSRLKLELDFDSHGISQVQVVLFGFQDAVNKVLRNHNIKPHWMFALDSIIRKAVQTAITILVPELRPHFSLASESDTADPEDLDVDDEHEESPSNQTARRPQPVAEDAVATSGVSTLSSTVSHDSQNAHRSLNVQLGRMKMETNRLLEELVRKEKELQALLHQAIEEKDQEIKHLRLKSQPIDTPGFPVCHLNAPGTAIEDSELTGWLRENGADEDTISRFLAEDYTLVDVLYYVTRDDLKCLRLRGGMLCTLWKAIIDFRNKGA

CYP2C9 = CYP2C9 (Homo sapiens, UniProt P11712); assay: Inhibition of CYP2C9 (unknown origin) at 10 uM relative to control; format: ADME
Sequence of CYP2C9 (P11712 whole entry): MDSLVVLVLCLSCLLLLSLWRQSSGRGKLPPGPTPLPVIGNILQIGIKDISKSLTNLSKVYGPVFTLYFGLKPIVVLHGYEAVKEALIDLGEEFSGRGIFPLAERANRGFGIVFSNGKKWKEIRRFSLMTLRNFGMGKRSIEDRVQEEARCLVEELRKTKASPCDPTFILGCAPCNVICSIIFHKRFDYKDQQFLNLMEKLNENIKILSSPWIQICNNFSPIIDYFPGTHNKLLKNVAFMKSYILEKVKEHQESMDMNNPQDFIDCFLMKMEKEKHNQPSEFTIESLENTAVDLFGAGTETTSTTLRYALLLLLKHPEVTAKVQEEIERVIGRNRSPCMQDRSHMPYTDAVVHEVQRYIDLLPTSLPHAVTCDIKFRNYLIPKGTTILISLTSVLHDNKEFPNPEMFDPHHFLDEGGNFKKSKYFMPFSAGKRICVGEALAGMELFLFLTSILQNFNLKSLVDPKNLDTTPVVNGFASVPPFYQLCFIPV

Sequence of CYP2D6 (P10635 whole entry): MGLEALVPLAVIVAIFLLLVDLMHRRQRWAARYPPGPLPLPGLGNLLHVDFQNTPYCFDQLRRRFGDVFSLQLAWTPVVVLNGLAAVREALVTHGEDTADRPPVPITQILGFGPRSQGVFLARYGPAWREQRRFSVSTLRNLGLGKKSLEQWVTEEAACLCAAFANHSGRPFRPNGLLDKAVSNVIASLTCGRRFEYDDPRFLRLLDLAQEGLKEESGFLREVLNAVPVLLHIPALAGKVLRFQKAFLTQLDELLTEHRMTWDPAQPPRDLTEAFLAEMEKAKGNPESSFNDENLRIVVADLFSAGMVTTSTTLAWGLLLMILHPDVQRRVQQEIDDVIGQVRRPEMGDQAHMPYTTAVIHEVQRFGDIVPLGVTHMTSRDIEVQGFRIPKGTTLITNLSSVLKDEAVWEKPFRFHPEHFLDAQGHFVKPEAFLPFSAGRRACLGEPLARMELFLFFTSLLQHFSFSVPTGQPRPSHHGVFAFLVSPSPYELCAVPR
Sequence of CYP3A4 (P08684 whole entry): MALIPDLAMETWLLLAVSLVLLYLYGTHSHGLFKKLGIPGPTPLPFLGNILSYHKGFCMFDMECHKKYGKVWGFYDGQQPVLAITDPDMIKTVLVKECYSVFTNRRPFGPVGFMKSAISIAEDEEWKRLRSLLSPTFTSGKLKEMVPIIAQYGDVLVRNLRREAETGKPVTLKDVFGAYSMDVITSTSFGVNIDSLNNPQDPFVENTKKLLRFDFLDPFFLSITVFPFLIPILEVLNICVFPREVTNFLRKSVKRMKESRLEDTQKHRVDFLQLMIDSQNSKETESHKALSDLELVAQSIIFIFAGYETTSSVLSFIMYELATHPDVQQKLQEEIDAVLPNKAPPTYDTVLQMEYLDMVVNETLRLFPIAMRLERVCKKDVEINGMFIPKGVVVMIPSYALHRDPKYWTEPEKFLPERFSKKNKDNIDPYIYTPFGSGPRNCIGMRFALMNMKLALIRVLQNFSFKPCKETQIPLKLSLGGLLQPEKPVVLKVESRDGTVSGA

Structure (SMILES): CC(=O)Nc1cccc(Nc2ncc3ccccc3n2)c1
- inhibition at 10 µM (CYP1A2): 94%
- half-life [1]: 6 min
- solubility [2]: 100 µM (≈ 27.8 µg/mL)
- IC50 [3]: 900 nM
- inhibition at 10 µM (CYP3A4): -13%
- half-life [4]: 2 min
- half-life [5]: 4 min
- inhibition at 10 µM (CYP2D6): 13%
- inhibition [6]: Active
- inhibition at 10 µM (CYP2C9): 20%
